{"source": "paper PMC2837349", "about": "(PLoS ONE, 2010)", "test_system": "rhinocerase", "settings": "read-out: Km ^a; 0.1M Tris-HCl pH 7.4, 37°C, 7 min; 100 µg enzyme", "note": "Structures can show the parent of a compound that is named as a salt."}
{"compound": "Cc1cc(=O)oc2cc(NC(=O)[C@H](CCCNC(=N)N)NC(=O)c3ccccc3)ccc12", "note": "[Arg-AMC, Nα-benzoyl-L-arginine 7-amido-4-methylcoumarin.HCl]", "values": [{"measurement": "Km", "value": "80 ± 2.02", "unit": "µM"}]}
